From patent publication US11634443B2, “Treprostinil prodrugs” (United Therapeutics Corporation, priority 2019, dated 2023) come the findings set out here.

A short description of data set [1]: Stability and formation of treprostinil in rat cryopreserved hepatocytes. The conditions noted are these: male, Sprague-Dawley, rat, 15 min, 100 μM, pH 7.4. As to the method: (§1) Mixed-gender human cryopreserved hepatocytes, male Sprague-Dawley rat cryopreserved hepatocytes, and male Beagle dog cryopreserved hepatocytes were purchased from XenoTech. The hepatocytes were thawed and prepared according to the vendor's instructions, pooled into Krebs Henseleit buffer (KHB, pH 7.4), and kept on ice prior to the experiments. […] The final DMSO content in the incubation mixture was ≤0.1%. […] Aliquots of the test article were withdrawn (n=1) at 0, 15, 30, 60, and 120 minutes. […] Aliquots of 7-HC were withdrawn (n=1) at 0 and 15 minutes. The reaction was immediately terminated by adding two volumes of ice-cold acetonitrile (ACN) to the test article samples and three volumes of ACN containing internal standard to the positive control samples.

The nature of data set [2]: Stability and formation of treprostinil in human cryopreserved hepatocytes. The note with it: both, human, 15 min, 100 μM, pH 7.4. As for the experimental part: as §1
Data set [3] is described as follows: Stability and formation of treprostinil in dog cryopreserved hepatocytes. The note with it: male, Beagle, dog, 15 min, 100 μM, pH 7.4. As to the method:
as §1

A short description of data set [4]: Clinical signs and mortality after single oral gavage or IV bolus dose in rats. In kind it is in vivo. The note with it: rat, in vivo. As to the method: Animals received a single dose via oral gavage or intravenous (bolus) injection. The following parameters and end points were evaluated in this study: clinical signs and pharmacokinetic parameters. Single males in the oral 50 mg/kg prodrugs XVII and VI group were found dead on Day 2. No macroscopic findings were noted. All other animals survived to the scheduled euthanasia.
Animals were not removed from the cage during observations, unless necessary for identification or confirmation of possible findings.
The animals were removed from the cage, and a detailed clinical observation was performed on the day of animal selection. Cage side observations were performed at 1 to 2 hours post dose. Animals were weighed individually following receipt, on the day of randomization, and on each day of dosing (prior to dosing). Individual body weights are presented below.
All surviving animals were euthanized and discarded. A necropsy was conducted for animals that died on study, and specified tissues were saved.

Structures are written as SMILES. Like-named read-outs stand apart in the source and are kept apart here.

`O=c1ccc2ccc(O)cc2o1` [7-hydroxycoumarin, reference compound]: the “Formation Rate of 7-HC-G (glucuronide)” value in data set [1] was 91.4 pmol/min/10^6 cells; in data set [2] it was 97.7 pmol/min/10^6 cells; in data set [3], 114 pmol/min/10^6 cells. Besides, the “Formation Rate of 7-HC-S (sulfate)” value in data set [1] was determined as 24.7 pmol/min/10^6 cells; in data set [2], 10.8 pmol/min/10^6 cells; in data set [3], 35.9 pmol/min/10^6 cells.
For `CCCCC[C@@H](CC[C@@H]1[C@H]2Cc3cccc(OCC(=O)O)c3C[C@H]2C[C@H]1O)OC(=O)OC` [Prodrug IV], in data set [4] (iv, 1 mg/kg), the “Test article-related (adverse) clinical observations” value is “adverse clinical observations”. In addition, the “Test article-related (adverse) clinical observations” value in data set [4] (po, 50 mg/kg) is given as “adverse clinical observations”. For the same molecule, the “Dose proportionality of mean prodrug Cmax” value (parent prodrug, PO 10 to 50 mg/kg, male rats) is “approximately dose proportional manner”. In addition, the “PO bioavailability (% F) of prodrug, based on mean AUCall/Dose” value (rat, in vivo) amounted to 1.04%. Under “rat, in vivo, iv, 1 mg/kg”, the “Individual AUCINF of prodrug” value was 41.5 to 144 ng·h/mL, the “Individual C0 of prodrug” value was in the range of 65.6 to 759 ng/mL, the “Individual Cl of prodrug” value lay within 115.7 to 401.67 mL/min/kg and the “Individual T1/2 of prodrug” value is 5.46 to 16.6 min. Also, under “rat, in vivo, iv, 1 mg/kg”, the “Individual Vz of prodrug” value lay in the range of 2.69 to 3.61 L/kg, the “Mean AUC0-12hr of prodrug” value was determined as 94.4 ng·h/mL, the “Mean AUCINF of prodrug” value was 98.7 ng·h/mL and the “Mean C0 of prodrug” value is listed as 324 ng/mL. Further, under “rat, in vivo, iv, 1 mg/kg”, the “Mean Cl of prodrug” value stood at 223.33 mL/min/kg, the “Mean T1/2 of prodrug” value was 12.7 min, the “Mean Vz of prodrug” value was determined as 3.15 L/kg and the “Prodrug quantifiable up to (time postdose)” value (“Prodrug quantifiable up” for short) is reported as 1 or 2 hours. The “Prodrug quantifiable up” value (rat, in vivo, po, 10 mg/kg) worked out at 1 h. Further, where the note is “rat, in vivo, po, 50 mg/kg”, the “AUCINF of prodrug (single animal)” value was 65.4 ng·h/mL; the “Cl/F of prodrug (single animal)” value turned out to be 12733.3 mL/min/kg; the “Individual AUC0-24hr of prodrug” value came to 49.2 ng·h/mL; the “Prodrug quantifiable up” value is 1, 2, 8, or 12 hours. Under “rat, in vivo, po, 50 mg/kg”, the “T1/2 of prodrug (single animal)” value turned out to be 256 min and the “Vz/F of prodrug (single animal)” value stood at 4710 L/kg.
